Experimental data: PMC7297445, “Pharmacokinetic/Pharmacodynamic Determination and Preclinical Pharmacokinetics of the β-Lactamase Inhibitor ETX1317 and Its Orally Available Prodrug ETX0282” (ACS Infectious Diseases, 2020)
In brackets after ≈: the same amount, converted by molar mass.

Key:
E. coli NMC101 [1] = assay: Murine neutropenic thigh infection model; assay type: in vivo, mouse; conditions: 600 mg/kg s.c./q6h
Procedure: (§1) To further understand whether this in vitro activity translated to in vivo efficacy, an additional neutropenic thigh study was conducted in mice with increasing doses of ETX0282 alone vs E. coli NMC101 (ETX1317 MICBLI = 1 μg/mL) and ARC4419 (ETX1317 MICBLI = 0.25 μg/mL). […] Despite the significant exposure of ETX1317, a 200 mg/kg q6h dose of ETX0282 alone was ineffective for both strains (Table 6).
(§2) In vivo neutropenic infection models in the mouse were conducted as previously described.[48],[49] All procedures were performed to Entasis approved IACUC policies and guidelines as well as OLAW standards. Briefly, Female CD-1 mice (20–22 g, Charles River Laboratories) were acclimated for 5 days prior to start of study. Animals were housed 3 per cage with free access to food and water. Mice were rendered neutropenic via two doses of cyclophosphamide on days −4 and −1 with 150 mg/kg and 100 mg/kg delivered intraperitoneally in a dose volume of 10 mL/kg, respectively.[48]
(§3) Enterobacteriaceae isolates ARC2687, ARC4488, ARC5118, NMC101, and ARC4419 were prepared for infection from an overnight plate culture. A portion of the plate was resuspended in sterile saline and adjusted to an OD of 0.1 at 625 nm. The adjusted bacterial suspension was further diluted to target an infecting inoculum of approximately 5.0 × 10^6–1.0 × 10^7 CFU/mouse. The actual inoculum size varied between 5.5 × 10^6–1.6 × 10^6 CFU/thigh and administered via intramuscular injection of (100 μL). Plate counts of the inoculum were performed to confirm inoculum concentration and treatment was initiated 2 h after bacterial challenge.
(§4) ETX0282 and CPDP were formulated in 0.5% HPMC/0.1% Tween 80 suspension. meropenem (utilized as a positive control) was solubilized in water for injection. All studies utilized a meropenem dosed at 600 mg/kg q6h subcutaneously as positive control against meropenem sensitive isolates (MIC ≤ 2 μg/mL) and as a negative control against meropenem resistant isolates. For dose arms utilizing a combination of ETX0282 and CPDP, both agents were reconstituted in the same vehicle. All dose concentrations were adjusted to deliver targeted mg/kg doses within a dose volume of 10 mL/kg. Formulation potency was verified by LC/MS/MS.
(§5) ETX0282 and CPDP were administered via q6h dose intervals in order to achieve targeted unbound exposures. At 24 h post initiation of therapy, animals were euthanized, tissue samples aseptically collected and homogenized. Bacterial colony enumeration of tissue homogenate was performed by serial dilution on TSA plates which were incubated overnight at 35 °C prior to colony (CFU) counting.

E. coli ARC4419 [2] = assay: Murine neutropenic thigh infection model; assay type: in vivo, mouse; conditions: 600 mg/kg s.c./q6h
Procedure: as §1, §2, §3, §4, §5

K. pneumoniae ARC5118 [3] = assay: Murine neutropenic thigh infection model; assay type: in vivo, mouse
Procedure: as §2, §3, §4, §5

E. coli ARC2687 [4] = assay: Murine neutropenic thigh infection model; assay type: in vivo, mouse
Procedure: as §2, §3, §4, §5

K. pneumoniae ARC5118 [5] = assay: MIC, broth microdilution (CLSI); assay type: cell-based
Procedure: (§6) MICs were determined utilizing a 1:2 ratio of cefpodoxime:ETX1317. […] The isolates utilized in the present study (Table 1) were broadly insensitive to CPD, presumably due to the presence of ESBLs and carbapenemases expressed in these strains. The addition of ETX1317 restored CPD activity to ≤1 μg/mL across all the tested isolates.
(§7) The MIC of each isolate was determined using the broth microdilution method following CLSI guidelines of document M07-A7 (CLSI M07-A7).

E. coli ARC2687 [6] = assay: MIC, broth microdilution (CLSI); assay type: cell-based
Procedure: as §6, §7

K. pneumoniae ARC4488 = assay: MIC, broth microdilution (CLSI); assay type: cell-based
Procedure: as §6, §7

[7] = system: E. coli strain (ATCC 25922); assay: MIC; assay type: cell-based; conditions: Escherichia coli, ATCC25922; susceptible strain
Text: All in vivo efficacy studies were supported with PK of ETX1317 and CPD following oral administration of ETX0282 and CPDP. For the purposes of understanding the exposure-PD response relationship, total systemic concentrations of ETX1317 and cefpodoxime were normalized to unbound drug levels after accounting for protein binding with percent unbound estimates of 93% and 66%, respectively, in mouse plasma (Table S2). An in vivo dose range study with CPDP administered alone against a susceptible E. coli strain (ATCC 25922, CPD MIC = 0.5 μg/mL) was completed initially in a murine neutropenic thigh model to confirm its PK/PD target. In this study a 50 mg/kg oral dose of CPDP administered q6h was consistent with achieving 1–log kill over 24 h. […] Oral exposure was generally dose proportional to 50 mg/kg; however, it became less than dose proportional at ≥200 mg/kg.
as §7

Plasma protein binding = assay type: in vitro ADME, mouse; conditions: mouse plasma; read-out: percent unbound
Procedure: Plasma protein binding was determined by rapid equilibrium dialysis. Plasma was freshly prepared from blood samples drawn in to EDTA (anticoagulant) containing tubes. Plasma was prepared using a table-top centrifuge and spun per instruction of the tube manufacturer and specifications (Beckton, Dickinson and Company, Franklin Lakes, NJ) and placed on ice prior to use.
Pooled plasma samples were centrifuged at 2000 rpm (approximately 1400g) for 15 min at 4 °C to remove debris. Approximately 90% of the clear supernatant fraction was transferred to a separate tube. Samples (500 μL) were then spiked with a 100× stock solution 100 μM, 0.5 mM, and 10 mM ETX1317 in DMSO respectively for 1, 5, and 100 μM final concentrations, transferred to the top of the filter chambers, and allowed to equilibrate for 15 min prior to centrifugation. The filtrate tubes were centrifuged at 14000g for 15 min at 4 °C. Next, 50 μL of the filtrate was precipitated with 300 μL of acetonitrile containing 250 ng/mL of carbutamide as the internal standard and the samples were analyzed by LC/MS/MS analysis.

[8] = system: Enterobacteriaceae isolates; assay: Hollow-fiber and chemostat models, strains combined; assay type: cell-based, E. coli, K. pneumoniae; conditions: infused alone, both models
Procedure: The PK/PD driver of ETX1317 was assessed in the presence of CPD in both hollow-fiber[28]−[31] and chemostat[32]in vitro infection model systems. In all cases, CPD was administered q12h via a 2 h infusion and eliminated with a 2 h half-life, with the concentration of drug exceeding the MIC (the MIC of CPD in the presence of ETX1317 at a 1:2 ratio) for 50% of the dosing interval for each strain. Representative Emax plots are shown graphically for Escherichia coli ARC2687 in the hollow-fiber model and Klebsiella pneumoniae ARC4420 in the chemostat system (Figure 2). […] This could partially be attributed to the distribution of the concentration ranges utilized for the hollow-fiber infection model (HFIM) where most of the data scatter occurred in the efficacious dose range for lower MIC strains. It is important to note that initial evaluation of K. pneumoniae ARC4420 and ARC5118 was completed in the HFIM but rapid degradation of CPD, presumably through accumulation of β-lactamases in the extra-capillary space of the cartridge precluded a reliable assessment of the PK/PD driver with these strains in this model.[32] […] In both the HFIM and chemostat models the optimum critical threshold of ETX1317 was established through iterative Emax fitting of a range of ETX1317 concentrations from 0.5× to 2× the CPD:ETX1317 MIC value. In the HFIM, %Time > ETX1317 CT of 2× MIC provided the highest correlation to observed activity which appeared to be independent to the apparent intrinsic activity of ETX1317 (as reflected by ETX1317 MICBLI of K. pneumoniae ARC4486 vs ARC4488). […] In both models CPD infused alone mimicked vehicle control as expected with similar growth of +2 to 4 log10 CFU/mL.
PK/PD-derived exposure targets for BLIs have utilized various approaches for clinical dose setting. The use of a singular critical threshold value independent of MIC has been used for recent BL/BLI combinations such as ceftazidime/avibactam[34] aztreonam/avibactam,[35] but this has been problematic to correlate activity across a broad range of MICs. More recent work with ceftolozane/tazobactam[36] and other BLI combinations[37],[38] considers a critical threshold value that varies proportionally to the MIC value. […] Convergence of the data to a threshold value related to MIC simplifies dose setting and, in this case, appears to be consistent across a broad range of susceptibility (0.125–1 μg/mL).
Dose range and dose fractionation were performed in hollow-fiber infection model (HFIM) and chemostat (one-compartment) in vitro infection model. […] CPD concentrations were targeted to achieve exposure of ∼50%Time > MIC determined in the presence of ETX1317. […] Bacterial burden (CFU/mL) was serially assessed by sampling (500 μL) from the extra-capillary space of the HFIM cartridge at predetermined time points. […]

[9] = cited from earlier work
K. pneumoniae ARC4420 = assay: MIC, broth microdilution (CLSI); assay type: cell-based; conditions: Klebsiella pneumoniae, combination at 1:2 ratio cefpodoxime:ETX1317, MIC of CPD
Procedure: as §6, §7

E. coli NMC101 [10] = assay: MIC, broth microdilution (CLSI); assay type: cell-based; conditions: Escherichia coli, combination at 1:2 ratio cefpodoxime:ETX1317, MIC of CPD
Procedure: as §6, §7

K. pneumoniae ARC4486 = assay: MIC, broth microdilution (CLSI); assay type: cell-based; conditions: Klebsiella pneumoniae, combination at 1:2 ratio cefpodoxime:ETX1317, MIC of CPD
Procedure: as §6, §7

E. coli ARC4419 [11] = assay: MIC, broth microdilution (CLSI); assay type: cell-based; conditions: Escherichia coli, combination at 1:2 ratio cefpodoxime:ETX1317, MIC of CPD
Procedure: as §6, §7

[12] = q6h, 24 h, cidal = ≥1 log10 CFU/g reduction

C[C@@H](O)[C@H]1C(=O)N2C(C(=O)O)=C(S[C@@H]3CN[C@H](C(=O)N(C)C)C3)[C@H](C)[C@H]12 [meropenem]
log10 CFU/g thigh change 24 h post therapy initiation (E. coli NMC101 [1]): –1.36 log10 CFU/g
log10 CFU/g thigh change 24 h post therapy initiation (E. coli ARC4419 [2]): –2.19 log10 CFU/g
log10 CFU/g thigh change 24 h post therapy initiation (K. pneumoniae ARC5118 [3]; 600 mg/kg s.c./q6h): +2.04 log10 CFU/g
in vivo efficacy in words (K. pneumoniae ARC5118 [3]; [12]): not against K. pneumoniae ARC5118
log10 CFU/g thigh change 24 h post therapy initiation (E. coli ARC2687 [4]; 600 mg/kg s.c./q6h): –1.46 log10 CFU/g
in vivo efficacy in words (E. coli ARC2687 [4]; [12]): cidal activity
susceptibility to meropenem (K. pneumoniae ARC5118 [5]; KPC-producing isolate): resistant to meropenem
susceptibility to meropenem (E. coli ARC2687 [6]; ESBL producer): maintain susceptibility to meropenem
susceptibility to meropenem (K. pneumoniae ARC4488; ESBL producer): maintain susceptibility to meropenem

COCC1=C(C(=O)O)N2C(=O)[C@@H](NC(=O)/C(=N\OC)c3csc(N)n3)[C@H]2SC1 [cefpodoxime]
MIC [7]: 0.5 µg/mL (≈ 1.17 µM)
fraction unbound at 15 min (Plasma protein binding): 0.66
growth [8]: +2 to 4 log10 CFU/mL
% of dosing interval with mean unbound concentrations exceeding at least 0.5 μg/mL ([9]; 400 mg q12h (800 mg/day)): greater than 50%
half-life in humans ([9]; humans): 2 h
F% ([9]; oral proxetil ester prodrug, top dose 400 mg q12h): ≈ 50%
MIC (K. pneumoniae ARC5118 [5]; Klebsiella pneumoniae, ARC5118, combination at 1:2 ratio cefpodoxime:ETX1317, MIC of CPD): > 64 µg/mL
MIC (K. pneumoniae ARC4420): > 64 µg/mL
MIC (E. coli NMC101 [10]): > 64 µg/mL
MIC (E. coli ARC2687 [6]; Escherichia coli, ARC2687, combination at 1:2 ratio cefpodoxime:ETX1317, MIC of CPD): > 64 µg/mL
MIC (K. pneumoniae ARC4488; Klebsiella pneumoniae, ARC4488, combination at 1:2 ratio cefpodoxime:ETX1317, MIC of CPD): > 64 µg/mL
MIC (K. pneumoniae ARC4486): > 64 µg/mL
MIC (E. coli ARC4419 [11]): 64 µg/mL
